According to patent US10399985B2, “(Hetero)aryl imidazoles/pyrazoles for treatment of neurological disorders” (Hoffmann-La Roche Inc., priority 2014, dated 2019):

Tests used:
human PDE10A = human PDE10A (Homo sapiens (Human), UniProt Q9Y233); test: human PDE10A full length Scintillation Proximity Assay (SPA); type: biochemical; conditions: 50 nM cGMP and 50 nM [3H]-cGMP, 20 minutes at room temperature
Experimental: The following test was carried out in order to determine the activity of the compounds of the present invention. PDE10 activity of the compounds of the present invention was determined using a Scintillation Proximity Assay (SPA)-based method similar to the one previously described (Fawcett, L. et al., ProcNatl Acad Sci USA (2000) 97(7):3702-3707).
The human PDE10A full length assay was performed in 96-well micro titer plates. The reaction mixture of 50 μl contained 20 mM HEPES pH=7.5/10 mM MgCl2/0.05 mg/ml BSA (Sigma cat. # A-7906), 50 nM cGMP (Sigma, cat. # G6129) and 50 nM [3H]-cGMP (GE Healthcare, cat. # TRK392 S. A. 13.2 Ci/mmol), 3.75 ng/well PDE10A enzyme (Enzo Life Science, Lausen, Switzerland cat # SE-534) with or without a specific test compound. A range of concentrations of the potential inhibitor was used to generate data for calculating the concentration of inhibitor resulting in 50% of the effect (e.g. IC50, the concentration of the competitor inhibiting PDE10A activity by 50%). Non-specific activity was tested without the enzyme. The reaction was initiated by the addition of the substrate solution (cGMP and [3H]-cGMP) and allowed to progress for 20 minutes at room temperature. The reaction was terminated by adding 25 μl of YSi-SPA scintillation beads (GE Healthcare, cat. # RPNQ0150) in 18 mM zinc sulphate solution (stop reagent). After 1 h under shaking, the plate was centrifuged one minute at 170 g to allow beads to settle. Afterwards, radioactive counts were measured on a Perkin Elmer TopCount Scintillation plate reader.

rats = conditions: sub-chronic treatment with PCP; cited from earlier work

human PDE10A, sequence (Q9Y233 other isoform, or with tags, fused parts or gaps): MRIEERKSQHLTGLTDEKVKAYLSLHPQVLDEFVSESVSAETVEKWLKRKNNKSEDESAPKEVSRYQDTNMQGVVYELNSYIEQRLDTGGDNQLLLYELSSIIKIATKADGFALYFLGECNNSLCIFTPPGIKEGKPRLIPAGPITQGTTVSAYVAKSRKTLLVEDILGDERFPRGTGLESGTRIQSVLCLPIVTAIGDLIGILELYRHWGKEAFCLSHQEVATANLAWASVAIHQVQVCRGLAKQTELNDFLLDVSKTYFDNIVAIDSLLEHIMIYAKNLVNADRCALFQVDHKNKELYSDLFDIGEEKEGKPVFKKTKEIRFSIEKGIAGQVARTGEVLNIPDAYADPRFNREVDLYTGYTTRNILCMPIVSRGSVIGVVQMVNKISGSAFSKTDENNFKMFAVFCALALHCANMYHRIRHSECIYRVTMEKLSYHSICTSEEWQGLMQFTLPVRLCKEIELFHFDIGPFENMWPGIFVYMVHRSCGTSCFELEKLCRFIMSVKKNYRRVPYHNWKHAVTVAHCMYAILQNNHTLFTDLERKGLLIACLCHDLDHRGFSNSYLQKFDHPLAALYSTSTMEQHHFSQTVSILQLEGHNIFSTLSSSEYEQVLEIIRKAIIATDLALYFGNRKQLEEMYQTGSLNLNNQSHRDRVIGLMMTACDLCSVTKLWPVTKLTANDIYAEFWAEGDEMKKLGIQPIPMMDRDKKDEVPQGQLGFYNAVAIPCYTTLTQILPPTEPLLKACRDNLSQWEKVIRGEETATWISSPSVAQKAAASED

Row | Structure (SMILES) | IC50 (human PDE10A) | deficits in the extra-dimensional shift learning (rats)
1 | CCc1nc2ccc(OCc3nc(-c4ccccc4)cn3C)nn2c1C [Example 35, 2-Ethyl-3-methyl-6-((1-methyl-4-phenyl-1H-imidazol-2-yl)methoxy)imidazo[1,2-b]pyridazine] | 0.264 µM | –
2 | Cc1c(C(F)(F)F)nc2ccc(OCc3nc(-c4ccccc4)cn3C)nn12 [Example 36, 3-Methyl-6-((1-methyl-4-phenyl-1H-imidazol-2-yl)methoxy)-2-(trifluoromethyl)imidazo[1,2-b]pyridazine] | 0.0346 µM | –
3 | Cn1cc(-c2ccccc2)nc1COc1ccc2nc(C3CC3)cn2n1 [Example 37, 2-Cyclopropyl-6-((1-methyl-4-phenyl-1H-imidazol-2-yl)methoxy)imidazo[1,2-b]pyridazine] | 0.169 µM | –
4 | Cc1cn2nc(OCc3nc(-c4ccccc4)cn3C)ccc2n1 [Example 38, 2-Methyl-6-((1-methyl-4-phenyl-1H-imidazol-2-yl)methoxy)imidazo[1,2-b]pyridazine] | 0.133 µM | –
5 | Cc1c(C(N)=O)nc2ccc(OCc3nc(-c4ccccc4)cn3C)nn12 [Example 39, 3-Methyl-6-((1-methyl-4-phenyl-1H-imidazol-2-yl)methoxy)imidazo[1,2-b]pyridazine-2-carboxamide] | 0.115 µM | –
6 | Cc1c(C#N)nc2ccc(OCc3nc(-c4ccccc4)cn3C)nn12 [Example 40, 3-Methyl-6-((1-methyl-4-phenyl-1H-imidazol-2-yl)methoxy)imidazo[1,2-b]pyridazine-2-carbonitrile] | 0.0237 µM | –
7 | COc1cc(OCc2nc(-c3ccccc3)cn2C)nn2c(C)c(C(F)(F)F)nc12 [Example 41, 8-Methoxy-3-methyl-6-((1-methyl-4-phenyl-1H-imidazol-2-yl)methoxy)-2-(trifluoromethyl)imidazo[1,2-b]pyridazine] | 0.0118 µM | –
8 | Cc1c(CO)nc2ccc(OCc3nc(-c4ccccc4)cn3C)nn12 [Example 42, (3-Methyl-6-((1-methyl-4-phenyl-1H-imidazol-2-yl)methoxy)imidazo[1,2-b]pyridazin-2-yl)methanol] | 0.363 µM | –
9 | Cn1cc(-c2ccccc2)nc1COc1ccc2nc(C3CC3)c(CO)n2n1 [Example 43, (2-Cyclopropyl-6-((1-methyl-4-phenyl-1H-imidazol-2-yl)methoxy)imidazo[1,2-b]pyridazin-3-yl)methanol] | 0.167 µM | –
10 | Cn1cc(-c2ccccc2)nc1COc1ccc2nc3c(n2n1)CCC3 [Example 44, 2-[(1-Methyl-4-phenyl-imidazol-2-yl)methoxy]-7,8-dihydro-6H-cyclopenta[1,2]imidazo[3,4-c]pyridazine] | 0.047 µM | –
11 | Cn1cc(-c2ccccc2)nc1COc1ccc2nc(C(F)(F)F)cn2n1 [Example 45, 6-((1-Methyl-4-phenyl-1H-imidazol-2-yl)methoxy)-2-(trifluoromethyl)imidazo[1,2-b]pyridazine] | 0.328 µM | –
12 | Cc1nn2ccc(OCc3nc(-c4ccccc4)cn3C)nc2c1C [Example 46, 2,3-Dimethyl-5-((1-methyl-4-phenyl-1H-imidazol-2-yl)methoxy)pyrazolo[1,5-a]pyrimidine] | 0.0034 µM | –
13 | COc1ccc(Cc2nccc3cc(OC)c(OC)cc23)cc1OC [papaverine, Papaverine] | – | attenuate the deficits
